# According to paper PMC10247784, “Physiological activation of human and mouse bitter taste receptors by bile acids” (Communications Biology, 2023):
# Values joined by “and” are separate entries in the source; they are usually repeats but may differ in a detail not shown here. Identical values can stand only once.
# Target: T1, human TAS2R14 (Homo sapiens, UniProt Q9NYV8)
# T1 construct: expressed in transfected cells; host or cells: HEK293T-Gα16gust44
# T1 sequence (Q9NYV8 1-317): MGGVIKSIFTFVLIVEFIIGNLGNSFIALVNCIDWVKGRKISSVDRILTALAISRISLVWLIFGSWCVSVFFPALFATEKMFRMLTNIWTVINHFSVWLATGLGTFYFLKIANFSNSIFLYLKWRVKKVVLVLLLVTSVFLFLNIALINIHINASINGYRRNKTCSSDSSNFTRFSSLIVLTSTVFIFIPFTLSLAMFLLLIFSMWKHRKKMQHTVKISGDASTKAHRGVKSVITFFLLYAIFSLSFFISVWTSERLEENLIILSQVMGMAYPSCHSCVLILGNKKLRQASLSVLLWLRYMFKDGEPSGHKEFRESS
# Assay: Calcium imaging assay (FLIPR), HEK293T-Gα16gust44 cells transfected with human TAS2R14
# Type: cell-based
# Conditions: for RLU: TAS2R14 trace
# Method: This set of bile acids was chosen because of their commercial availability in high purities, their diversity within the class of bile acids and their previous detection and quantitation in human blood. Stock solutions were prepared in DMSO.
# As basal growth medium for the HEK293T-Gα16gust44 cell line[17],[59] served Dulbecco’s modified eagle medium (DMEM) (Thermo Fisher Scientific, Darmstadt, Germany) supplemented with 10 % fetal bovine serum (Sigma-Aldrich, Steinheim, Germany), 2 mM L-glutamine (Sigma-Aldrich, Steinheim, Germany), 100 units/ml penicillin (Sigma Aldrich, Steinheim, Germany) and 100 µg/ml streptomycin (Sigma Aldrich, Steinheim, Germany). Growth conditions were 37 °C, 5 % CO2 and saturated air-humidity[60].
# HEK293T-Gα16gust44 cells were seeded on poly-D-lysine (10 µg/ml) coated 96-well plates to reach a confluence of 40-60 % the next day. For transient transfection 150 ng of plasmid DNA containing the receptor of interest and 0.3 µl lipofectamine 2000 (Thermo Fisher Scientific, Darmstadt, Germany) per well were used and transfection took place according to the manual of lipofectamine 2000. […] The empty vector DNA (mock) was transfected as negative control[14],[41].
# Cells were loaded using the calcium-sensitive fluorescent dye Fluo-4-AM (Abcam, Cambridge, Great Britain) in the presence of 2.5 mM probenecid (Sigma-Aldrich, Steinheim, Germany) the day after transfection[13],[41]. 1 h after loading, cells were washed with C1 buffer using a BioTek Cell Washer, incubated in the dark for half an hour and washed again. For automated agonist application and measurement of fluorescence changes, a FLIPR^TETRA device (Molecular Devices, San José, United States) was used. Viability of cells was tested by application of 100 nM Somatostatin 14 (Bachem, Bubendorf, Switzerland)[42].
# Measured data were negative control corrected by subtracting the signal of the mock-transfected cells and exported to Microsoft Excel using the FLIPR software ScreenWorks 4.2. In Microsoft Excel software, standardization of maximum fluorescence intensities to the basal fluorescence and normalization to the buffer-only control was done to calculate the relative fluorescence changes (ΔF/F).
# Initial screening experiments performed in duplicate wells were confirmed by at least one replication and representative traces were selected for display. All dose-response relationships were determined by three independent experiments (biological replicates) performed in duplicates (technical replicates). Threshold concentrations, defined as lowest substance concentrations leading to statistically significant elevated fluorescence changes in receptor-transfected cells compared with empty vector-transfected cells, were determined using SigmaPlot with Student’s t-test to evaluate statistical significance (p < 0.01).
structure (smiles),measurement,setting,value
"C[C@H](CCC(=O)NCCS(=O)(=O)O)[C@H]1CC[C@H]2[C@@H]3[C@H](O)C[C@@H]4C[C@H](O)CC[C@]4(C)[C@H]3C[C@H](O)[C@]12C [Taurocholic Acid, taurocholic acid]",Efficacy = maximal amplitude (ΔF/F),"TAS2R14, bile acids, mean",0.2246
same,"Efficacy (maximal amplitude ΔF/F), individual data points","TAS2R14, bile acids, single replicates, listed as TCA",0.1896 and 0.238 and 0.2462
same,Δ F/F,"TAS2R14, conc. 0,01 mM",-0.01734
same,Δ F/F,"TAS2R14, conc. 0,1 mM",-0.007315
same,Δ F/F,"TAS2R14, conc. 0,03 mM",-0.005139
same,Δ F/F,"TAS2R14, conc. 0,3 mM",0.03332
same,Δ F/F,"TAS2R14, conc. 0,001 mM",-0.02529
same,Δ F/F,"TAS2R14, conc. 1 mM",0.2246
same,Δ F/F,"TAS2R14, conc. 0,003 mM",-0.01812
same,RLU,Time (s) 0,0 RLU
same,RLU,Time (s) 2 (Taurocholic Acid 2.016),15.4574 RLU
same,RLU,Time (s) 4 (Taurocholic Acid 4.016),-13.3747 RLU
same,RLU,Time (s) 6 (Taurocholic Acid 6.016),-38.8354 RLU
same,RLU,Time (s) 8 (Taurocholic Acid 8.016),-33.6332 RLU
same,RLU,Time (s) 12 (Taurocholic Acid 12.016),-53.4595 RLU
same,RLU,Time (s) 14 (Taurocholic Acid 14.016),-55.3521 RLU
same,RLU,Time (s) 16 (Taurocholic Acid 16.016),-65.1913 RLU
same,RLU,Time (s) 18 (Taurocholic Acid 18.016),-43.8232 RLU
same,RLU,Time (s) 18.797 (Chenodeoxycholic Acid 18.765),-59.7397 RLU
same,RLU,Time (s) 20.797 (Chenodeoxycholic Acid 20.781),-48.6104 RLU
same,RLU,Time (s) 22.797 (Chenodeoxycholic Acid 22.781),-37.2936 RLU
same,RLU,Time (s) 24.797 (Chenodeoxycholic Acid 24.781),-25.1873 RLU
same,RLU,Time (s) 26.797 (Chenodeoxycholic Acid 26.781),-30.6749 RLU
same,RLU,Time (s) 28.797 (Chenodeoxycholic Acid 28.781),4.524 RLU
same,RLU,Time (s) 30.797 (Chenodeoxycholic Acid 30.781),-8.18 RLU
same,RLU,Time (s) 32.797 (Chenodeoxycholic Acid 32.781),30.1537 RLU
same,RLU,Time (s) 34.797 (Chenodeoxycholic Acid 34.781),70.0865 RLU
same,RLU,Time (s) 36.797 (Chenodeoxycholic Acid 36.781),98.6425 RLU
same,RLU,Time (s) 38.797 (Chenodeoxycholic Acid 38.781),134.228 RLU
same,RLU,Time (s) 40.797 (Chenodeoxycholic Acid 40.781),192.709 RLU
same,RLU,Time (s) 42.797 (Chenodeoxycholic Acid 42.781),232.913 RLU
same,RLU,Time (s) 44.797 (Chenodeoxycholic Acid 44.781),243.453 RLU
same,RLU,Time (s) 46.797 (Chenodeoxycholic Acid 46.781),297.017 RLU
same,RLU,Time (s) 48.797 (Chenodeoxycholic Acid 48.781),343.953 RLU
same,RLU,Time (s) 50.797 (Chenodeoxycholic Acid 50.781),379.622 RLU
same,RLU,Time (s) 52.797 (Chenodeoxycholic Acid 52.781),398.833 RLU
same,RLU,Time (s) 54.797 (Chenodeoxycholic Acid 54.781),459.728 RLU
same,RLU,Time (s) 56.797 (Chenodeoxycholic Acid 56.781),470.92 RLU
same,RLU,Time (s) 58.797 (Chenodeoxycholic Acid 58.781),515.163 RLU
same,RLU,Time (s) 60.797 (Chenodeoxycholic Acid 60.781),529.36 RLU
same,RLU,Time (s) 62.797 (Chenodeoxycholic Acid 62.781),543.404 RLU
same,RLU,Time (s) 64.797 (Chenodeoxycholic Acid 64.781),572.542 RLU
same,RLU,Time (s) 66.797 (Chenodeoxycholic Acid 66.781),570.299 RLU
same,RLU,Time (s) 68.797 (Chenodeoxycholic Acid 68.781),602.865 RLU
same,RLU,Time (s) 70.797 (Chenodeoxycholic Acid 70.781),609.474 RLU
same,RLU,Time (s) 72.797 (Chenodeoxycholic Acid 72.781),663.572 RLU
same,RLU,Time (s) 74.797 (Chenodeoxycholic Acid 74.781),688.158 RLU
same,RLU,Time (s) 76.797 (Chenodeoxycholic Acid 76.781),696.58 RLU
same,RLU,Time (s) 78.797 (Chenodeoxycholic Acid 78.781),702.313 RLU
same,RLU,Time (s) 80.797 (Chenodeoxycholic Acid 80.781),724.676 RLU
same,RLU,Time (s) 82.797 (Chenodeoxycholic Acid 82.781),729.222 RLU
same,RLU,Time (s) 84.797 (Chenodeoxycholic Acid 84.781),755.668 RLU
same,RLU,Time (s) 86.797 (Chenodeoxycholic Acid 86.781),758.133 RLU
same,RLU,Time (s) 88.797 (Chenodeoxycholic Acid 88.781),801.791 RLU
same,RLU,Time (s) 90.797 (Chenodeoxycholic Acid 90.781),813.667 RLU
same,RLU,Time (s) 92.797 (Chenodeoxycholic Acid 92.781),823.99 RLU
same,RLU,Time (s) 94.797 (Chenodeoxycholic Acid 94.781),849.724 RLU
same,RLU,Time (s) 96.797 (Chenodeoxycholic Acid 96.781),840.46 RLU
same,RLU,Time (s) 98.797 (Chenodeoxycholic Acid 98.781),832.423 RLU
same,RLU,Time (s) 100.797 (Chenodeoxycholic Acid 100.781),870.888 RLU
same,RLU,Time (s) 102.797 (Chenodeoxycholic Acid 102.781),887.784 RLU
same,RLU,Time (s) 104.797 (Chenodeoxycholic Acid 104.781),895.487 RLU
same,RLU,Time (s) 106.797 (Chenodeoxycholic Acid 106.781),886.141 RLU
same,RLU,Time (s) 108.797 (Chenodeoxycholic Acid 108.781),931.883 RLU
same,RLU,Time (s) 110.797 (Chenodeoxycholic Acid 110.781),935.64 RLU
same,RLU,Time (s) 112.797 (Chenodeoxycholic Acid 112.781),971.794 RLU
same,RLU,Time (s) 114.797 (Chenodeoxycholic Acid 114.781),962.409 RLU
same,RLU,Time (s) 116.797 (Chenodeoxycholic Acid 116.781),993.706 RLU
same,RLU,Time (s) 118.797 (Chenodeoxycholic Acid 118.781),1000.54 RLU
same,RLU,Time (s) 120.797 (Chenodeoxycholic Acid 120.781),1025.82 RLU
same,RLU,Time (s) 122.797 (Chenodeoxycholic Acid 122.781),1039.5 RLU
same,RLU,Time (s) 124.797 (Chenodeoxycholic Acid 124.781),1041.39 RLU
same,RLU,Time (s) 126.797 (Chenodeoxycholic Acid 126.781),1050.25 RLU
same,RLU,Time (s) 128.797 (Chenodeoxycholic Acid 128.781),1043.78 RLU
same,RLU,Time (s) 130.797 (Chenodeoxycholic Acid 130.781),1042.75 RLU
same,RLU,Time (s) 132.797 (Chenodeoxycholic Acid 132.781),1039.88 RLU
same,RLU,Time (s) 134.797 (Chenodeoxycholic Acid 134.781),1050.77 RLU
same,RLU,Time (s) 136.797 (Chenodeoxycholic Acid 136.781),1036.12 RLU
same,RLU,"Time (s) 137.562 (Taurocholic Acid 137.563, Chenodeoxycholic Acid 137.546)",1048.18 RLU
same,RLU,"Time (s) 143.578 (Taurocholic Acid 143.563, Chenodeoxycholic Acid 143.546)",1008.4 RLU
same,RLU,"Time (s) 149.578 (Taurocholic Acid 149.563, Chenodeoxycholic Acid 149.546)",998.739 RLU
same,RLU,"Time (s) 155.578 (Taurocholic Acid 155.563, Chenodeoxycholic Acid 155.546)",977.028 RLU
same,RLU,"Time (s) 161.578 (Taurocholic Acid 161.563, Chenodeoxycholic Acid 161.546)",958.674 RLU
same,RLU,"Time (s) 167.578 (Taurocholic Acid 167.563, Chenodeoxycholic Acid 167.546)",918.668 RLU
same,RLU,"Time (s) 173.578 (Taurocholic Acid 173.563, Chenodeoxycholic Acid 173.546)",888.356 RLU
same,RLU,"Time (s) 179.578 (Taurocholic Acid 179.563, Chenodeoxycholic Acid 179.546)",847.479 RLU
same,RLU,"Time (s) 191.578 (Taurocholic Acid 191.563, Chenodeoxycholic Acid 191.546)",745.479 RLU
same,RLU,"Time (s) 197.578 (Taurocholic Acid 197.563, Chenodeoxycholic Acid 197.546)",696.127 RLU
same,RLU,"Time (s) 209.578 (Taurocholic Acid 209.563, Chenodeoxycholic Acid 209.546)",643.487 RLU
same,RLU,"Time (s) 221.578 (Taurocholic Acid 221.563, Chenodeoxycholic Acid 221.546)",526.781 RLU
same,RLU,"Time (s) 233.578 (Taurocholic Acid 233.563, Chenodeoxycholic Acid 233.546)",416.225 RLU
same,RLU,"Time (s) 239.578 (Taurocholic Acid 239.563, Chenodeoxycholic Acid 239.546)",342.018 RLU
same,RLU,"Time (s) 245.578 (Taurocholic Acid 245.563, Chenodeoxycholic Acid 245.546)",303.535 RLU
same,RLU,"Time (s) 293.578 (Taurocholic Acid 293.563, Chenodeoxycholic Acid 293.546)",127.213 RLU
same,RLU,"Time (s) 299.578 (Taurocholic Acid 299.563, Chenodeoxycholic Acid 299.546)",108.412 RLU
same,RLU,"Time (s) 305.578 (Taurocholic Acid 305.563, Chenodeoxycholic Acid 305.546)",98.929 RLU
same,RLU,"Time (s) 311.578 (Taurocholic Acid 311.563, Chenodeoxycholic Acid 311.546)",88.6159 RLU
same,RLU,"Time (s) 317.578 (Taurocholic Acid 317.563, Chenodeoxycholic Acid 317.546)",79.3923 RLU
same,RLU,"Time (s) 323.578 (Taurocholic Acid 323.563, Chenodeoxycholic Acid 323.546)",80.4704 RLU
same,RLU,"Time (s) 329.578 (Taurocholic Acid 329.563, Chenodeoxycholic Acid 329.546)",68.4196 RLU
same,RLU,"Time (s) 335.578 (Taurocholic Acid 335.563, Chenodeoxycholic Acid 335.546)",88.4103 RLU
same,RLU,"Time (s) 341.578 (Taurocholic Acid 341.563, Chenodeoxycholic Acid 341.546)",53.5929 RLU
same,RLU,"Time (s) 347.578 (Taurocholic Acid 347.563, Chenodeoxycholic Acid 347.546)",48.7046 RLU
same,RLU,"Time (s) 353.578 (Taurocholic Acid 353.563, Chenodeoxycholic Acid 353.546)",68.797 RLU
same,RLU,"Time (s) 359.578 (Taurocholic Acid 359.563, Chenodeoxycholic Acid 359.546)",47.7517 RLU
same,Activation threshold concentration TAS2R14,lowest concentration with significantly increased fluorescence vs empty vector (p < 0.01),300 µM
